“And” between values parts separate entries of the source, which are not always exact repeats. Identical values can stand only once. Values belong to the compound of their own block, whether it stands above or below them.
Assays:
MSK1(h) = target: T1, MSK1(h) (Homo sapiens, UniProt O75582); experiment: KinaseProfiler enzyme profiling; assay type: biochemical
T1 construct: purchased Eurofins KinaseProfiler
Procedure: (§1) Enzyme profiling services were provided by KinaseProfiler™ (Eurofin, Brussels, Belgium). The concentration of erianin was 100 nM, and total 70 kinases were tested in this in vitro screening and profiling services (2 repetitions). For more details, refer to the manufacturer’s instructions (www.eurofinsdiscoveryservices.com).

GSK3β(h) = target: T2, GSK3β(h) (Homo sapiens, UniProt P49841); experiment: KinaseProfiler enzyme profiling; assay type: biochemical
T2 construct: purchased Eurofins KinaseProfiler
Procedure: as §1

PKA(h) = target: T3, PKA(h) (Homo sapiens, UniProt P17612); experiment: KinaseProfiler enzyme profiling; assay type: biochemical
T3 construct: purchased Eurofins KinaseProfiler
Procedure: as §1

EGFR(L861Q)(h) = target: T4, EGFR(L861Q)(h) (Homo sapiens, UniProt P00533, L861Q); experiment: KinaseProfiler enzyme profiling; assay type: biochemical
T4 construct: purchased Eurofins KinaseProfiler
Procedure: as §1

p70S6K(h) = target: T5, p70S6K(h) (Homo sapiens, UniProt P23443); experiment: KinaseProfiler enzyme profiling; assay type: biochemical
T5 construct: purchased Eurofins KinaseProfiler
T5 sequence (P23443 whole entry): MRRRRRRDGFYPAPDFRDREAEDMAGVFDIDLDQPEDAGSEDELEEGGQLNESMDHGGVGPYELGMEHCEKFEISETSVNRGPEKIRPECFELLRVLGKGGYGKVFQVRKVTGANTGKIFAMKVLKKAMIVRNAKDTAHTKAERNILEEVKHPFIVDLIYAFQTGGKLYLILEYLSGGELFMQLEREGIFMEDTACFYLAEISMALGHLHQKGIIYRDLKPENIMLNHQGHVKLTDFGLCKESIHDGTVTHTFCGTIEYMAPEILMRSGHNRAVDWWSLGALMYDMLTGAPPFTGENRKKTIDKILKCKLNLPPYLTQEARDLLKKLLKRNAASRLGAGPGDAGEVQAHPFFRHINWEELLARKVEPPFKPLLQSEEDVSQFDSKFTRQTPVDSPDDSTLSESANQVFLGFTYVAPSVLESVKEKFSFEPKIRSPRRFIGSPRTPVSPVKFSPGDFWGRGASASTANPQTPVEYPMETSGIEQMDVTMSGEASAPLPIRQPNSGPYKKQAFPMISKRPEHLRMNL
Procedure: as §1

Pim-1(h) = target: T6, Pim-1(h) (Homo sapiens, UniProt P11309); experiment: KinaseProfiler enzyme profiling; assay type: biochemical
T6 construct: purchased Eurofins KinaseProfiler
Procedure: as §1

NEK2(h) = target: T7, NEK2(h) (Homo sapiens, UniProt P51955); experiment: KinaseProfiler enzyme profiling; assay type: biochemical
T7 construct: purchased Eurofins KinaseProfiler
Procedure: as §1

CDK1/cyclinB(h) = target: T8, CDK1/cyclinB(h) (Homo sapiens, UniProt P06493); experiment: KinaseProfiler enzyme profiling; assay type: biochemical
T8 construct: purchased Eurofins KinaseProfiler
Procedure: as §1

PDK1(h) = target: T9, PDK1(h) (Homo sapiens, UniProt O15530); experiment: KinaseProfiler enzyme profiling; assay type: biochemical
T9 construct: purchased Eurofins KinaseProfiler
Procedure: as §1

MEK2 full length = MEK2 full length (Homo sapiens, UniProt P36507); experiment: SPR; assay type: binding; conditions: CM5 chip, Biacore T200, read-out: equilibrium dissociation constant (KD)
Procedure: (§2) 293 T cells were transfected with plasmids of pcDNA3.1-3×Flag-C-MAP2K1/MAP2K1 (K97A, M146A), MAP2K2/MAP2K1 (K101A, M150A), or CRAF/CRAF (K375A). […]
(§3) After incubation, a series concentration of erianin (RAF inhibitor LY3009120 and MEK inhibitor cobimetinib were simultaneously added as positive control) flowed through the protein-CM5 system. The binding was tested and analyzed using Biacore T200 instrument.

CRAF (306-end) = target: T10, CRAF (306-end) (Homo sapiens, UniProt P04049); experiment: SPR; assay type: binding; conditions: CM5 chip, Biacore T200, read-out: equilibrium dissociation constant (KD)
T10 construct: purchased
T10 sequence (P04049 306-648 limits assumed): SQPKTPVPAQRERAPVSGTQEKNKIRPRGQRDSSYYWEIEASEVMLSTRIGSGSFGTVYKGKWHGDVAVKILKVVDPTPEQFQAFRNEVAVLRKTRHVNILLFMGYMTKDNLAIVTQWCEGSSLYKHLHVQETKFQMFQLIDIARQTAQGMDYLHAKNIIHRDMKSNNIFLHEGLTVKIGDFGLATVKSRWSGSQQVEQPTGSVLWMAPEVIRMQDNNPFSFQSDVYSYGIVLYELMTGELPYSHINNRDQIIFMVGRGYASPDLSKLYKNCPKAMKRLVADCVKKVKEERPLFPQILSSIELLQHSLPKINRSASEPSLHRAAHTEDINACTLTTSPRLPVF
Procedure: as §2, §3

MEK1 full length = MEK1 full length (Homo sapiens, UniProt Q02750); experiment: SPR; assay type: binding; conditions: CM5 chip, Biacore T200, read-out: equilibrium dissociation constant (KD)
Sequence of MEK1 full length (Q02750 whole entry): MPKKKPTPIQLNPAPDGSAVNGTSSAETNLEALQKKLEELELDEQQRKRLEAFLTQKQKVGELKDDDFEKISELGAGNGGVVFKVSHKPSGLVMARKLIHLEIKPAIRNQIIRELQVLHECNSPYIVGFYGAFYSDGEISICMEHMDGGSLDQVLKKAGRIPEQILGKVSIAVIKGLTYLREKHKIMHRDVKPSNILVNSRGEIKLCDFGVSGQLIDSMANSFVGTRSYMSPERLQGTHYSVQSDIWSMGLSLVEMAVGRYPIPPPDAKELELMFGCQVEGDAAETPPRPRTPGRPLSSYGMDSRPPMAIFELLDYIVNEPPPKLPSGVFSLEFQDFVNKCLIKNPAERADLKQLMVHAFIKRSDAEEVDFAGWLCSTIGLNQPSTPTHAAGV
Procedure: as §2, §3

melanoma PDX = experiment: Patient-derived xenograft (PDX); assay type: in vivo
Procedure: Fig. 7 Erianin exerts antitumor efficacy in melanoma and colorectal cancer in vivo. a Tumor pharmacodynamic assay was performed in tumor-bearing NPG mice (tumor has been passaged from melanoma patient to mice for three generations). The photographs show tumors from melanoma PDX mice treated with vehicle or drugs. b The effect of erianin on the volume of PDX tumors over time (within 78 days) was plotted. Vehicle, erianin (50 mg/kg, once a day), vemurafenib (50 mg/kg, once a day), erianin and vemurafenib combination therapy, cobimetinib (5 mg/kg, twice a week) or vemurafenib and cobimetinib combination therapy (once a day and twice a week, respectively) were administered by oral gavage, n = 8 in each group. Tumor volume was measured once a week. […] Scale bars: 20 μm. One-way ANOVA test. ***p < 0.001. e Antitumor efficacy of erianin with or without immunity using B16F10 cell xenograft in C57BL-6J mouse. f, g Trend of tumor volume over time and tumor weight was measured after treatment on the last day of the study.

IKKβ(h) = target: T11, IKKβ(h) (Homo sapiens, UniProt O14920); experiment: KinaseProfiler enzyme profiling; assay type: biochemical
T11 construct: purchased Eurofins KinaseProfiler
T11 sequence (O14920 whole entry): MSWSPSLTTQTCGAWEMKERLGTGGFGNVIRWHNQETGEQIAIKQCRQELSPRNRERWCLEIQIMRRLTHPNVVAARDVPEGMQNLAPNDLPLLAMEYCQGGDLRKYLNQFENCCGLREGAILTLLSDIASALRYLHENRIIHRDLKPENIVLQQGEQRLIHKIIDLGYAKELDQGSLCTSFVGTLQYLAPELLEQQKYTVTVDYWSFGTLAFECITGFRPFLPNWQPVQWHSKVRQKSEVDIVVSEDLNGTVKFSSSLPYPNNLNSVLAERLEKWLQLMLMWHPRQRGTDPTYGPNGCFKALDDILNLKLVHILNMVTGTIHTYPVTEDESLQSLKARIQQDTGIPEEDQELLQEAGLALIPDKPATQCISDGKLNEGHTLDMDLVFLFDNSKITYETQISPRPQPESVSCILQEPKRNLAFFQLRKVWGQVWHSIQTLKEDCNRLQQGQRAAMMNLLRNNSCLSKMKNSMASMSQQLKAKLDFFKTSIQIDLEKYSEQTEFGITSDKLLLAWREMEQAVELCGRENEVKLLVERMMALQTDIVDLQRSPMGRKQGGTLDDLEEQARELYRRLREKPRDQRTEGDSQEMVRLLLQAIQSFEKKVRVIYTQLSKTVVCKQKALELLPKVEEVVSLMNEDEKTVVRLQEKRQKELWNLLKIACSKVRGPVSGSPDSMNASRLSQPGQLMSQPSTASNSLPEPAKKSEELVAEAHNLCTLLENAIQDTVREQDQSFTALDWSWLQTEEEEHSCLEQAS
Procedure: as §1

CDK4/cyclinD3(h) = target: T12, CDK4/cyclinD3(h) (Homo sapiens, UniProt P11802); experiment: KinaseProfiler enzyme profiling; assay type: biochemical
T12 construct: purchased Eurofins KinaseProfiler
Procedure: as §1

JNK3(h) = target: T13, JNK3(h) (Homo sapiens, UniProt P53779); experiment: KinaseProfiler enzyme profiling; assay type: biochemical
T13 construct: purchased Eurofins KinaseProfiler
Procedure: as §1

PKCα(h) = target: T14, PKCα(h) (Homo sapiens, UniProt P17252); experiment: KinaseProfiler enzyme profiling; assay type: biochemical
T14 construct: purchased Eurofins KinaseProfiler
Procedure: as §1

PKBα(h) = target: T15, PKBα(h) (Homo sapiens, UniProt P31749); experiment: KinaseProfiler enzyme profiling; assay type: biochemical
T15 construct: purchased Eurofins KinaseProfiler
Procedure: as §1

PDGFRβ(h) = target: T16, PDGFRβ(h) (Homo sapiens, UniProt P09619); experiment: KinaseProfiler enzyme profiling; assay type: biochemical
T16 construct: purchased Eurofins KinaseProfiler
T16 sequence (P09619 33-1106): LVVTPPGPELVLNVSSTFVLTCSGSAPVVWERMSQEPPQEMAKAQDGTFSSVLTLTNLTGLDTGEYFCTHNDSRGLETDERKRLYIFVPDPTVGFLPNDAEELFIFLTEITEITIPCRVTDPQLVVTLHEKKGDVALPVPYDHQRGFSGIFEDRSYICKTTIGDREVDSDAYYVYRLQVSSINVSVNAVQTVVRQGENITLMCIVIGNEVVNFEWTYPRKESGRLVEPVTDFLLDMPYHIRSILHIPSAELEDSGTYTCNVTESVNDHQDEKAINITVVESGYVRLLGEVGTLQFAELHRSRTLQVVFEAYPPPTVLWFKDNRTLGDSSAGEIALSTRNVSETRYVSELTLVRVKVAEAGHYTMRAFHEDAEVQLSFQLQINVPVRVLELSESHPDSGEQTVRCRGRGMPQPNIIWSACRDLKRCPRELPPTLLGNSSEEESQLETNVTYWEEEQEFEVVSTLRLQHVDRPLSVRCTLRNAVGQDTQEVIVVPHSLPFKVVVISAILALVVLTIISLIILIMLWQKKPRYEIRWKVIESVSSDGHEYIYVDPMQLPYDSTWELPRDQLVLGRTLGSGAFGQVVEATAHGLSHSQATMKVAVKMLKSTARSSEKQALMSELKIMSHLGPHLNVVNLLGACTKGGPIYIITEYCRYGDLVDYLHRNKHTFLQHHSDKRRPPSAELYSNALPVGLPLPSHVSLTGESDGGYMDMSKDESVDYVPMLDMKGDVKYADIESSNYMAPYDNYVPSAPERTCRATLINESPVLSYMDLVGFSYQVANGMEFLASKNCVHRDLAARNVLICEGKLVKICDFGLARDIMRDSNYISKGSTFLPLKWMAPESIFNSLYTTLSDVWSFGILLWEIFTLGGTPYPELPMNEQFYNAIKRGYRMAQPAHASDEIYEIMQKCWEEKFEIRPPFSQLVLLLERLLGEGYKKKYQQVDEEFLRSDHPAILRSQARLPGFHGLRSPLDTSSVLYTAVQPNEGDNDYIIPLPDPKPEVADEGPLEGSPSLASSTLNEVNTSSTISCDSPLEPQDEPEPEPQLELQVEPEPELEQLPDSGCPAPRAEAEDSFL
Procedure: as §1

FAK(h) = target: T17, FAK(h) (Homo sapiens, UniProt Q05397); experiment: KinaseProfiler enzyme profiling; assay type: biochemical
T17 construct: purchased Eurofins KinaseProfiler
Procedure: as §1

ROCK-II(h) = target: T18, ROCK-II(h) (Homo sapiens, UniProt O75116); experiment: KinaseProfiler enzyme profiling; assay type: biochemical
T18 construct: purchased Eurofins KinaseProfiler
Procedure: as §1

ROCK-I(h) = target: T19, ROCK-I(h) (Homo sapiens, UniProt Q13464); experiment: KinaseProfiler enzyme profiling; assay type: biochemical
T19 construct: purchased Eurofins KinaseProfiler
Procedure: as §1

JNK1α1(h) = target: T20, JNK1α1(h) (Homo sapiens, UniProt P45983); experiment: KinaseProfiler enzyme profiling; assay type: biochemical
T20 construct: purchased Eurofins KinaseProfiler
Procedure: as §1

SAPK3(h) = target: T21, SAPK3(h) (Homo sapiens, UniProt P53778); experiment: KinaseProfiler enzyme profiling; assay type: biochemical
T21 construct: purchased Eurofins KinaseProfiler
Procedure: as §1

JAK3(h) = target: T22, JAK3(h) (Homo sapiens, UniProt P52333); experiment: KinaseProfiler enzyme profiling; assay type: biochemical
T22 construct: purchased Eurofins KinaseProfiler
T22 sequence (P52333 whole entry): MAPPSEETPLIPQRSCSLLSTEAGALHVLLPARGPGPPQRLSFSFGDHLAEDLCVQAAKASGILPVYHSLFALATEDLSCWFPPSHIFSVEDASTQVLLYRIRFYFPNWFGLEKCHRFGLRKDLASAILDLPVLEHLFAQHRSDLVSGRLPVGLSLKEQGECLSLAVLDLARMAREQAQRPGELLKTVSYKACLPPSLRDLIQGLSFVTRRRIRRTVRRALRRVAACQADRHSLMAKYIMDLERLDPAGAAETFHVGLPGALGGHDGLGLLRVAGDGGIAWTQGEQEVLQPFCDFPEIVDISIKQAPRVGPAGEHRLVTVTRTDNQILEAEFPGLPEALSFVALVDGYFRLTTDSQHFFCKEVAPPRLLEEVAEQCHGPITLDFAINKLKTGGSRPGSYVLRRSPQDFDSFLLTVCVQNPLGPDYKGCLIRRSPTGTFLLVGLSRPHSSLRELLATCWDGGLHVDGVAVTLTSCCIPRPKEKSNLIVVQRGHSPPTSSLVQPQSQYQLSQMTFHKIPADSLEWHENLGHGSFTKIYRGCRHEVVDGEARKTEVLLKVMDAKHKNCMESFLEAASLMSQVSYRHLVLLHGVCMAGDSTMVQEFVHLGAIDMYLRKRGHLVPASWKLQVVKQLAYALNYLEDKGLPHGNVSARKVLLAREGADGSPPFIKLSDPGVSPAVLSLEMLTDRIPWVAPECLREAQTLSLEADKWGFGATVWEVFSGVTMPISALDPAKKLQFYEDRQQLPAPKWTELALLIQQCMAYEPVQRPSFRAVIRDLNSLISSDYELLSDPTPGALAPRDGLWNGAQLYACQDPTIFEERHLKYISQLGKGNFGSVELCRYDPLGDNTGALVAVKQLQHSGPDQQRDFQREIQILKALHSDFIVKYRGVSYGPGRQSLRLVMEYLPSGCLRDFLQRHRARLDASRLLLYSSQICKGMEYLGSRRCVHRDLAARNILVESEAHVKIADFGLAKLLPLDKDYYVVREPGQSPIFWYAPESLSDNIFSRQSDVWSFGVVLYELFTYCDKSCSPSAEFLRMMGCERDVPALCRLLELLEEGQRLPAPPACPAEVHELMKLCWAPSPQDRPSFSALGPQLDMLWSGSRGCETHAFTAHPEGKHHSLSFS
Procedure: as §1

PAK3(h) = target: T23, PAK3(h) (Homo sapiens, UniProt O75914); experiment: KinaseProfiler enzyme profiling; assay type: biochemical
T23 construct: purchased Eurofins KinaseProfiler
T23 sequence (O75914 whole entry): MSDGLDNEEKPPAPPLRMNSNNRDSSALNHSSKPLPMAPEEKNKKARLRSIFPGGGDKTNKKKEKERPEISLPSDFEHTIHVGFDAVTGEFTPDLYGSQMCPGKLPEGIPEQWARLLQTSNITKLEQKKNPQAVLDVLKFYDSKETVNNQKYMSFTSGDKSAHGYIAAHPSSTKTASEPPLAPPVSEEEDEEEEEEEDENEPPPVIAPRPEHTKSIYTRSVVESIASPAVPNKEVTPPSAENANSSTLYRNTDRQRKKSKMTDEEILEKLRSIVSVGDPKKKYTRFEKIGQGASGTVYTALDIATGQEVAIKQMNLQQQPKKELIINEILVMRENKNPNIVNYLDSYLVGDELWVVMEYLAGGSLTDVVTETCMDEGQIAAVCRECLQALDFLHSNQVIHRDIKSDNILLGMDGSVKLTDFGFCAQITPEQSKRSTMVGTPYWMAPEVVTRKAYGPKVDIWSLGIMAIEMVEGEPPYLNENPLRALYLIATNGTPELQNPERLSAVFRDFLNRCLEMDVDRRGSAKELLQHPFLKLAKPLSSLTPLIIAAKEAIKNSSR
Procedure: as §1

activity at 10 µM (MSK1(h)): 106%
activity at 10 µM (GSK3β(h); 10 µM): 115%
activity at 10 µM (PKA(h)): 100%
activity at 10 µM (EGFR(L861Q)(h); 10 µM): 108%
activity at 10 µM (p70S6K(h)): 95%
activity at 10 µM (Pim-1(h); 10 µM): 112%
activity at 10 µM (NEK2(h)): 105%
activity at 10 µM (CDK1/cyclinB(h)): 97%
activity at 10 µM (PDK1(h)): 107%
SMILES: COc1cc2oc(-c3ccc(O)c(O)c3)cc(=O)c2c(O)c1OC [Cirsiliol]

SMILES: COc1ccc(CCc2cc(OC)c(OC)c(OC)c2)cc1O [Erianin]
Kd (MEK2 full length): 115 µM
Kd (CRAF (306-end)): 89.6 µM and 89.7 µM
Kd (MEK1 full length): 68.5 µM
body weight (melanoma PDX; 50 mg/kg once a day, oral gavage): without significant changes
toxicity sign (HE staining) (melanoma PDX; HE staining of liver and spleen): neither erianin group nor erianin-vemurafenib combination therapy showed toxicity sign
tumor volume (melanoma PDX; oral gavage, erianin, vemurafenib 50 mg/kg once a day, cobimetinib 5 mg/kg twice a week, within 78 days): significant decrease
activity at 0.1 µM (GSK3β(h)): 99%
activity at 0.1 µM (IKKβ(h)): 95%
activity at 0.1 µM (CDK4/cyclinD3(h)): 105%
activity at 0.1 µM (JNK3(h)): 111%
activity at 0.1 µM (PKCα(h)): 89%
activity at 0.1 µM (PKBα(h)): 105%
activity at 0.1 µM (PDGFRβ(h)): 133%
activity at 0.1 µM (FAK(h)): 89%
activity at 0.1 µM (ROCK-II(h)): 112%
activity at 0.1 µM (EGFR(L861Q)(h)): 93%
activity at 0.1 µM (ROCK-I(h)): 125%
activity at 0.1 µM (JNK1α1(h)): 101%
activity at 0.1 µM (SAPK3(h)): 112%
activity at 0.1 µM (Pim-1(h)): 98%
activity at 0.1 µM (JAK3(h)): 98%
activity at 0.1 µM (PAK3(h)): 99%

activity at 10 µM (MSK1(h)): 93%
activity at 10 µM (IKKβ(h); 10 µM): 105%
activity at 10 µM (CDK4/cyclinD3(h); 10 µM): 109%
activity at 10 µM (JNK3(h); 10 µM): 54%
activity at 10 µM (PKCα(h); 10 µM): 69%
activity at 10 µM (PKA(h)): 108%
activity at 10 µM (PKBα(h); 10 µM): 90%
activity at 10 µM (PDGFRβ(h); 10 µM): 94%
activity at 10 µM (FAK(h); 10 µM): 76%
activity at 10 µM (ROCK-II(h); 10 µM): 88%
activity at 10 µM (p70S6K(h)): 53%
activity at 10 µM (ROCK-I(h); 10 µM): 86%
activity at 10 µM (JNK1α1(h); 10 µM): 107%
activity at 10 µM (SAPK3(h); 10 µM): 122%
activity at 10 µM (JAK3(h); 10 µM): 89%
activity at 10 µM (NEK2(h)): 90%
activity at 10 µM (CDK1/cyclinB(h)): 63%
activity at 10 µM (PAK3(h); 10 µM): 95%
activity at 10 µM (PDK1(h)): 69%
SMILES: C=C1C(=O)[C@]23[C@H](O)[C@H]1CC[C@H]2[C@@]12CO[C@]3(O)[C@@H](O)[C@@H]1C(C)(C)CC[C@@H]2O [Oridonin]
